The record followed here is patent publication US20260256924A1, “INDOCYANINE GREEN (ICG) MODIFICATION FOR TREATMENT OF LIVER CANCER” (The Children's Medical Center Corporation, priority 2022, published 2026).

Entries after “also recorded” stand apart in the source; their conditions may differ.

For one series, the system named is FLC tumor tissue. Briefly: Gross and microscopic ICG localization in FLC patients (near-infrared fluorescence at surgery). It is filed as in vivo, patient. The settings on record: intravenous ICG 48 hours prior to surgery, FIGS. 31A-31D. As to the method:
ICG is administered several days prior to surgery, which subsequently is cleared from the blood and normal liver but is retained in tumor tissue. At the time of surgery, a near-infrared camera is used to identify ICG retaining tumor tissue since it fluoresces in response to near-infrared wave.^22,23 The use of ICG for localization of HCC and hepatoblastoma has been reported^16-18,21,22,30 however, there are no published reports regarding its use in FLC. […] The MDR3 transporter, which is responsible for export of ICG into the bile canaliculi is also expressed in tumor cells, albeit at lower levels.

The next series deals with Huh7 tumor cells. Briefly: In vivo fluorescence imaging following ICG administration in Huh7 xenograft mice. The settings on record: 0.5 mg/kg ICG dose, FIG. 32. Also noted: species or system immunodeficient mice. As for the experimental part:
Other areas of high signal represents concentration within the intestinal lumen. Control mouse without tumor is shown on the left side.
Xenotransplantation of the following cell lines is performed: FLX1 (FLC), Huh-7 (HCC) and HepG2 (well-differentiated HCC) in immunodeficient mice. […] Therefore, the dose is escalated to an appropriate level. Even though the majority of the models use HCC cells, the findings are applicable to FLC since FLC also has the ability to retain ICG (FIGS. 31A-31D). Currently, there is only one readily available FLC cell line, which also has the property to be engrafted in an immunodeficient mouse model.

Series [1] can be described thus: Whole blood gamma counting after 18F-SFB-ICG injection. The class given is in vivo, female C57BL/6 mice. The settings on record: FIG. 24B. As for the experimental part: (§1) The study was comprised of female C57BL/6 mice (n=4, 20.4+0.8 g, age 12.9 weeks). The modalities were whole body PET/CT and whole blood gamma counting which were performed on the mice using the imaging agent ^18F-SFB-ICG as outlined in Table 1. Briefly, the mice were imaged in a 2-bed imaging hotel with imaging agent administered intravenously while animals were on camera (volume dosed was maintained constant to keep mass dose constant). 1 hour dynamic PET data was acquired, followed by CT. A static 30 minute PET dataset was acquired at 4 hours, also followed by CT. A blood sample was taken immediately following each imaging time point for gamma counting.
Gamma Counting: Whole blood samples were collected after each imaging session for ex vivo radioactivity analysis by gamma counting. Triplicates of ^18F-SFB-ICG were also counted to calculate an efficiency factor from which counts could be converted to units of activity (μCi). The sample activities were corrected for background radiation and decay-corrected to the injection time. The tissue volumes were estimated through measurement of sample weights, and blood activity was reported as % ID/g and SUV.

A short description of series [2]: In vivo biodistribution of 18F-SFB-ICG in wild type mice by whole body PET/CT. Also noted: species or system female C57BL/6 mice. As for the experimental part: as §1
PET/CT: PET images were co-registered to CT images and resampled to uniform voxel size (0.2 mm^3). The injected activity doses were normalized to the averaged activity in the field of view (FOV) in the final 6 frames of the dynamic scan (FOV-based normalization). The Regions of Interest (ROIs) were defined using various methods in VivoQuant software: A fixed volume ellipsoidal ROI was placed in the center of the heart, to encompass a volume of representative concentration for that region. The fixed volume sphere ROIs were placed in the center of the lobes of the lungs (2), and throughout the spleen (3) to encompass a volume of representative concentration for those regions. Based on the CT and PET, the following organs were segmented as completely as possible: liver, gallbladder, small intestines, cecum, and large intestines. The activity concentration was reported as Standardized Uptake Value (SUV), equating to the […]. For fully segmented organs, uptake was also reported in percentage injected dose (% ID). FIGS. 17A-17D show resulting PET/CT images of a representative wild type mouse.

Series [3] can be described thus: [18F]SFB-ICG stability by HPLC (RCP). It is filed as physicochemical. As for the experimental part: FIGS. 11A-11B show HPLC traces of [^18F]SFB-ICG stability at 1 hour, and 2 hours.

Turning to `CC1(C)C(/C=C/C=C/C=C/C=C2\N(CCCCS(=O)(=O)O)c3ccc4ccccc4c3C2(C)C)=[N+](CCCCS(=O)(=O)[O-])c2ccc3ccccc3c21` [ICG, indocyanine green], the “ICG uptake/accumulation in FLC tumor tissue and metastases” value with FLC tumor tissue is given as “accumulation of ICG in metastatic tumor bed; also recorded: fluorescence (white) within tumor cells; also recorded: accumulates in FLC; also recorded: ICG uptake by tumor tissue in the liver as well as metastatic deposits”. In addition, the “uptake by implanted Huh7 tumor cells” value in the series with Huh7 tumor cells is listed as “demonstrate uptake; also recorded: ICG uptake by Huh7 tumor cells”.

Turning to `CC1(C)C(/C=C/C=C/C=C/C=C2/N(CCCCCC(=O)NCCNC(=O)c3ccc([18F])cc3)c3ccc4ccccc4c3C2(C)C)=[N+](CCCCS(=O)(=O)[O-])c2ccc3ccccc3c21` [[^18F]ICG], the “activity present in whole blood” value in series [1] (1 hour) is 2-2.5 % ID; in series [1] (4 hours), 1 % ID. The “time to evidence of excretion of the tracer into the gallbladder via the biliary system” value in series [2] (IV, wild-type mice) was no more than 20 min. In addition, in series [2] (IV, wild-type mice), the “time to evidence of the tracer in the lumen of the small intestine” value was no more than 45 min. For the same compound, the “signal intensity in the liver” value in series [2] (at 4 hours post injection) was “decreased significantly”. In addition, the tracer localization entry in series [2] (at 4 hours post injection) is “majority of the tracer is localized to the lumen of the intestines”; in series [2] (by 5 minutes post injection) it was “predominantly localized to the liver”; in series [2] (time 0 post injection), “localized to the heart and the major vessels”. Also, in series [2] (cecum, at 4 hours, IV, wild-type mice), the “percentage of injected dose localized to the cecum” value is “approximately 30 % ID”. Moreover, the “percentage of injected dose localized to the liver” value in series [2] (by 10 minutes, IV, wild-type mice, FIG. 18B) was roughly 70%; in series [2] (by 4 hours, IV, wild-type mice), “about 40 % ID”. In addition, the “uptake by other organs via the circulation” value in series [2] (organs other than liver) is recorded as “no significant uptake by any other organs”.

`CC1(C)C(/C=C/C=C/C=C/C=C2/N(CCCCCC(=O)NCCNC(=O)c3ccc([18F])cc3)c3ccc4ccccc4c3C2(C)C)=[N+](CCCCS(=O)(=O)[O-])c2ccc3ccccc3c21` [[^18F]SFB-ICG]: the “RCP (stability)” value in series [3] (at 1 hour) is recorded as 95%; in series [3] (at 2 hours), 96%.

Regarding `CC1(C)C(/C=C/C=C/C=C/C=C2/N(CCCCCC(=O)NCCNC(=O)c3ccc([18F])cc3)c3ccc4ccccc4c3C2(C)C)=[N+](CCCCS(=O)(=O)[O-])c2ccc3ccccc3c21` [^18F-SFB-ICG], the tracer localization entry is on record as “most intense signal is present within the lumen of the intestines” in series [2] (at 4 hours post injection) and “majority of the tracer is localized to the liver” in series [2] (by 5 minutes post injection). For the same compound, the “PET signal in large intestines and cecum” value in series [2] (time activity curves, FIGS. 18A-18B) was “not observed until the 4 hour time point”.
